In test [1] the target is T1, Orexin receptor type 2 (Homo sapiens, UniProt O43614). Kind of test: Counterscreen assay for antagonists of the orexin 1 receptor (OX1R; HCRTR1): Fluorescence-based cell-based dose response assay for antagonists of the orexin 2 receptor (OX2R; HCRTR2), run by assay provider. Type of test: functional.
Test [2] is described as follows: Counterscreen for antagonists of the orexin 1 receptor (OX1R; HCRTR1): Fluorescence-based cell-based high throughput dose response assay to identify antagonists of the parental CHO cell line. [Related pubchem assays (depositor defined):AID434989, AID435008, AID463079, AID485270, AID492963, AID492964, AID492965, AID493232, AID504699, AID504701]. In kind it is functional.

Test [3] addresses T2, Orexin/Hypocretin receptor type 1 (Homo sapiens, UniProt O43613). Kind of test: Fluorescence-based cell-based high throughput dose response assay for antagonists of the orexin 1 receptor (OX1R; HCRTR1). [Related pubchem assays (depositor defined):AID434989, AID435008, AID463079, AID485270, AID492963, AID492964, AID492965, AID493232, AID504717, AID504718]. In kind it is functional.

In test [4] the target is T1, Orexin receptor type 2. Kind of test: Counterscreen assay for antagonists of the orexin 1 receptor (OX1R; HCRTR1): Homogeneous Time Resolved Fluorescence (HTRF)-based cell-based dose response assay for antagonists of the orexin 2 receptor (OX2R; HCRTR2), run by assay provider. Type of test: functional.
Another test has as its system CHO-K1. Nature of the test: Counterscreen for antagonists of the orexin 1 receptor (OX1R; HCRTR1): Homogeneous time resolved fluorescence (HTRF)-based cell-based dose response assay to identify antagonists of the parental CHO-K1 cell line. [Related pubchem assays (depositor defined):AID434989, AID435008, AID463079, AID485270, AID492963, AID492964, AID492965, AID493232, AID504699, AID504701]. In kind it is functional. Conditions: Cricetulus griseus.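 Also: potency for inhibition of ATP-stimulated IP1 production as antagonists.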

Test [5] deals with T2, Orexin/Hypocretin receptor type 1. Kind of test: Homogeneous Time Resolved Fluorescence (HTRF)-based cell-based high throughput dose response assay for antagonists of the orexin 1 receptor (OX1R; HCRTR1). [Related pubchem assays (depositor defined):AID434989, AID435008, AID463079, AID485270, AID492963, AID492964, AID492965, AID493232, AID504717, AID504718]. Type of test: functional.

In test [6] the target is Sphingosine 1-phosphate receptor 2 (Homo sapiens, UniProt O95136). Kind of test: Late-stage fluorescence-based dose-response cell-based counterscreen assay to identify agonists of the Sphingosine 1-Phosphate Receptor 3 (S1P3): Sphingosine 1-Phosphate Receptor 2 (S1P2) agonist assay. Type of test: functional.
Test [7] deals with Sphingosine 1-phosphate receptor 4 (Homo sapiens, UniProt O95977). Nature of the test: Late-stage fluorescence-based dose-response cell-based counterscreen assay to identify agonists of the Sphingosine 1-Phosphate Receptor 3 (S1P3): Sphingosine 1-Phosphate Receptor 4 (S1P4) agonist assay. In kind it is functional.
Test [8] has as its target T3, Insulin-degrading enzyme (Homo sapiens, UniProt P14735).
T3 sequence (P14735 whole entry): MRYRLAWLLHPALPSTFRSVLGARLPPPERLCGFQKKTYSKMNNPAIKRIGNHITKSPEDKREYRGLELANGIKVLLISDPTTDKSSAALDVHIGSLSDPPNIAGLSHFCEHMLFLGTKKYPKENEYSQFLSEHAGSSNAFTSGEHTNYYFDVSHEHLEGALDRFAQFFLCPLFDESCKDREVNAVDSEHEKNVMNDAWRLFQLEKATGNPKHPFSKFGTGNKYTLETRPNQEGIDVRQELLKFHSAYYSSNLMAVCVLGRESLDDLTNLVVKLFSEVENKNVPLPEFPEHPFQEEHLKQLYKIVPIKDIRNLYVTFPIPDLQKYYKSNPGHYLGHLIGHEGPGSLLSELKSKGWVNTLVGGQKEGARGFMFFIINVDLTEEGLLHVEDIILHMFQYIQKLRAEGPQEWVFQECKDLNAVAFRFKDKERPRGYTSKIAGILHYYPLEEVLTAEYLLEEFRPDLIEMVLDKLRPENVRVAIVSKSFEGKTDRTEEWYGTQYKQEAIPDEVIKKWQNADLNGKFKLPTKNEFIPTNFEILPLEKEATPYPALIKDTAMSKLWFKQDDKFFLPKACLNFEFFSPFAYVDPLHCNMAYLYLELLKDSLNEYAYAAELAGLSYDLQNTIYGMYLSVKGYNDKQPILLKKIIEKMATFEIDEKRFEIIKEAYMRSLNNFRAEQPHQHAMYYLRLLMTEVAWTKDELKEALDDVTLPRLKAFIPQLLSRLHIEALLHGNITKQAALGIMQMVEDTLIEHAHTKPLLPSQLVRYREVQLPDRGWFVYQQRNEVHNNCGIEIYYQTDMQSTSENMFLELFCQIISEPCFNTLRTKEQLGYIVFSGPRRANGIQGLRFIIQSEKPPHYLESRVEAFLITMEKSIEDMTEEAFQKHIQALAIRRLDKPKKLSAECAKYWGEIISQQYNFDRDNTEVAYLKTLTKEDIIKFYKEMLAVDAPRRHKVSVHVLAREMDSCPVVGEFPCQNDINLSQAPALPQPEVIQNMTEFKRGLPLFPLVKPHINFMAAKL
Nature of the test: recombinant IDE activation, cell-free – biochemical, fluorescence polarization, counter-screen for IDE activator project, dose response (AID 588681).

Test [9] has as its system HEK293. Nature of the test: membrane integrity loss in HEK cells – cell-based, fluorescence, cytotoxicity control for IDE activator project, dose response (AID 588440).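 Also: cytotoxicity by LDH release measuring loss of membrane integrity.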 Type of test: functional. Conditions: Homo sapiens.
The target of test [10] is T3, Insulin-degrading enzyme. Kind of test: cellular IDE activation of Abeta substrate cleavage – fluorescence polarization, HEK cells, dose response (AID 588439). Type of test: functional, cell-based.
Test [11] has as its target Beta-lactamase (Pseudomonas aeruginosa, UniProt Q79MP6).
The target of test [12] is T4, Zinc finger protein mex-5 (Caenorhabditis elegans, UniProt Q9XUB2).
T4 sequence (Q9XUB2 whole entry): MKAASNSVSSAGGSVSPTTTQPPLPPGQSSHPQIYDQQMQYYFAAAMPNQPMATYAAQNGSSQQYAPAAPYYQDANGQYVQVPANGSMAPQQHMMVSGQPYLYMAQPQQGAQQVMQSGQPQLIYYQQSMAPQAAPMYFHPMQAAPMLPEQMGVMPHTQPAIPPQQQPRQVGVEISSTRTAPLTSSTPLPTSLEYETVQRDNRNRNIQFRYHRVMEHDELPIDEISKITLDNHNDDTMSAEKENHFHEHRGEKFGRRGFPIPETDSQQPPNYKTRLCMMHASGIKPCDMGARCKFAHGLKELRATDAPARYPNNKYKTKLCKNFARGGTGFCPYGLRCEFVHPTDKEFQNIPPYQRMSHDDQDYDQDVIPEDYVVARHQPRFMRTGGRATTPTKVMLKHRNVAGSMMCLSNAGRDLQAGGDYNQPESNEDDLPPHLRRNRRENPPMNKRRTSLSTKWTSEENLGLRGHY
Kind of test: potency of MEX-5 RNA-binding blockers – biochemical, C. elegans, fluorescence polarization, dose response (AID 1960).

Test [13] relates to HEK293. Nature of the test: optical interference in Abeta FP readout, dose response, artefact control for IDE activator project, biochemical, fluorescence polarization (AID 588442). Type of test: functional, cell-based. Conditions: Homo sapiens.
The target of the next test is Keap1/Nrf2 (Homo sapiens, UniProt Q14145). Nature of the test: disruptors of Keap1 binding to Nrf2 peptide – biochemical, fluorescence polarization, cherry-picked samples, dose response (AID 588683).
Test [14] has as its target T5, RNA-binding protein pos-1 (Caenorhabditis elegans, UniProt G5EF15).
T5 sequence (G5EF15 whole entry): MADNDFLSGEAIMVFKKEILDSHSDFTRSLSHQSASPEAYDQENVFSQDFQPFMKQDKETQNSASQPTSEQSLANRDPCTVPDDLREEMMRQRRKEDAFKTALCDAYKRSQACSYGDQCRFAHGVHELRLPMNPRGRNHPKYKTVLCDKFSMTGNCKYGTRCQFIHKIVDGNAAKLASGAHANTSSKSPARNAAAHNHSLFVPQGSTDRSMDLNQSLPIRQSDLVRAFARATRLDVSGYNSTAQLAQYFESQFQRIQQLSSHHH
Nature of the test: disruptors of C. elegans POS-1 RNA interaction – biochemical, fluorescence polarization, dose response (AID 1964).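 Also: purified POS-1 fused to maltose binding protein made in E. coli; potency of compounds blocking POS-1 binding to fluorescent RNA.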

For test [15], the target named is Beta-lactamase (Salmonella choleraesuis (strain SC-B67), UniProt Q5J463).
For a further test, the target named is T6, ORF 73 (Human herpesvirus 8, UniProt O40947).
T6 sequence (O40947 whole entry): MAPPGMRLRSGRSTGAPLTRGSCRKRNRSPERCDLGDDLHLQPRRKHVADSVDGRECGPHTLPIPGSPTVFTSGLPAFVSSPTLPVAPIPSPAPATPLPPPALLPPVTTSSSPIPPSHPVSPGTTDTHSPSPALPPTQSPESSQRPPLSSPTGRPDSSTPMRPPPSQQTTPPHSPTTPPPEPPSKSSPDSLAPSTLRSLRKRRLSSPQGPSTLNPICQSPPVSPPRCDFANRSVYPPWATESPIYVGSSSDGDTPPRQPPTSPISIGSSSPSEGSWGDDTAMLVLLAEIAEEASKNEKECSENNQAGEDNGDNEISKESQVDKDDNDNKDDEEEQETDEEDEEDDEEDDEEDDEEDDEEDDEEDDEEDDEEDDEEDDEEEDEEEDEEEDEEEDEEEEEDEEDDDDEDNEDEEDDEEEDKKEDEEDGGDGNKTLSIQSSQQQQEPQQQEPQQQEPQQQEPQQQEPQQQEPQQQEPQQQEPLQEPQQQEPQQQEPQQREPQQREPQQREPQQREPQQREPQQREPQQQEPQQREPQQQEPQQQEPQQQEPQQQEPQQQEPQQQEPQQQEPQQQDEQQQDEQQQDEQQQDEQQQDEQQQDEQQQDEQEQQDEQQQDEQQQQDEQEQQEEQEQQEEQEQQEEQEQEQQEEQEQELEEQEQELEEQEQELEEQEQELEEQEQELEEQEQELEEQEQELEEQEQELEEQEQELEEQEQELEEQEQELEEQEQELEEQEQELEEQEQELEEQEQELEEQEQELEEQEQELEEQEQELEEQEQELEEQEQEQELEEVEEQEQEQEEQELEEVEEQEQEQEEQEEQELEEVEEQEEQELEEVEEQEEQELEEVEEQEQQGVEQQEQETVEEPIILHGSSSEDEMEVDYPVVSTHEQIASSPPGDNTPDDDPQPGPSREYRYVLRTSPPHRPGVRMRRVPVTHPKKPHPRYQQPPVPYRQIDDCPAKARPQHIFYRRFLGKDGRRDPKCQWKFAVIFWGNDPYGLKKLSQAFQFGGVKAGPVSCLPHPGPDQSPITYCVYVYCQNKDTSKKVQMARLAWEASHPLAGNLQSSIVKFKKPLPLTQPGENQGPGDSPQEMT
Kind of test: KSHV LANA DNA-binding disruption – biochemical, fluorescence polarization, cherry-picked samples, dose response (AID 504725).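 Also: fluorescence polarization of a labeled DNA duplex reporting LANA DNA binding; potency is for inhibitors that block LANA binding to the DNA.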 On the set-up: species or system Human gammaherpesvirus 8.

Test [16] in a line: THP-1 cell cytotoxicity, dose response, cytotoxicity control, set 3 (AID 504852). Conditions: Mycobacterium tuberculosis. Type of test: functional.
A short description of the next test: cells. In kind it is functional.

Activity calls are given as the source filed them.

T1 sequence (O43614 whole entry): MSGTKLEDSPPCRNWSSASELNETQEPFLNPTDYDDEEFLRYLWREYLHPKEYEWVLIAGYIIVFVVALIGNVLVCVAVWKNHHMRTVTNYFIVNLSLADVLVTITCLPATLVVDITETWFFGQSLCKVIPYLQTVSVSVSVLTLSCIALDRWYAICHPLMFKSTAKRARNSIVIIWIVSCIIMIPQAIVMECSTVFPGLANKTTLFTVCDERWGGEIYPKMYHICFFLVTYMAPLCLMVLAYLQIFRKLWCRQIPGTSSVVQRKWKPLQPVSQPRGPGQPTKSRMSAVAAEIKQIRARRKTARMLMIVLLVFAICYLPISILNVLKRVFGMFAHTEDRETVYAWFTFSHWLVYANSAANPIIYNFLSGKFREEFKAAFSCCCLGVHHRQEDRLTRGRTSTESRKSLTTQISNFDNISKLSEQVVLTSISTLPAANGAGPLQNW
T2 sequence (O43613 whole entry): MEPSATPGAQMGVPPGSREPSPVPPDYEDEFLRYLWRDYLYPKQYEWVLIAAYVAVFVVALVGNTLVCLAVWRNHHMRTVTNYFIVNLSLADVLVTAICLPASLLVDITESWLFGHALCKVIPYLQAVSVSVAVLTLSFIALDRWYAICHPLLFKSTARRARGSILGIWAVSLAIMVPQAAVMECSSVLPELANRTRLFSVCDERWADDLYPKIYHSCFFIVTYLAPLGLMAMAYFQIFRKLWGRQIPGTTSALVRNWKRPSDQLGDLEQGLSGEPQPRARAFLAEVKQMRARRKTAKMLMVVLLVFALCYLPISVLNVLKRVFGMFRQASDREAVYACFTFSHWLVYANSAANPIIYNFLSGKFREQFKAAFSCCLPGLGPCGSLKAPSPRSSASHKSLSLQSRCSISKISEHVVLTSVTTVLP
Beta-lactamase (Pseudomonas aeruginosa, UniProt Q79MP6), sequence (Q79MP6 whole entry): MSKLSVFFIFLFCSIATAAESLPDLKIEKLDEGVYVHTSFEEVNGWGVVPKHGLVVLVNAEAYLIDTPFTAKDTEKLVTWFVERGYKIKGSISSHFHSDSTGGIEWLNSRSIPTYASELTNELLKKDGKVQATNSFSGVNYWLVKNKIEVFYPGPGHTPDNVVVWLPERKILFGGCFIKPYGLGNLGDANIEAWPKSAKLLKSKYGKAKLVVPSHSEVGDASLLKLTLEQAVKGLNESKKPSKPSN
Sphingosine 1-phosphate receptor 4, sequence (O95977 whole entry): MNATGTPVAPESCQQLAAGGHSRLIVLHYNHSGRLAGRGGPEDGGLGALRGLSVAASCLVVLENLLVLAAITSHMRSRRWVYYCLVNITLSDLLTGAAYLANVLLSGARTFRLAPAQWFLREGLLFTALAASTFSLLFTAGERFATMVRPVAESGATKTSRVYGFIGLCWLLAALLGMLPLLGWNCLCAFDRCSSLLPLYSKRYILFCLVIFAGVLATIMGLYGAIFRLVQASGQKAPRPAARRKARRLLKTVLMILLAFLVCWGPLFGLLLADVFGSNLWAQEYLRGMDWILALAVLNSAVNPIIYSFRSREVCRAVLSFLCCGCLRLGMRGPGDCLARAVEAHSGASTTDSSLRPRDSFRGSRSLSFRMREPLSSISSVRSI
Beta-lactamase (Salmonella choleraesuis (strain SC-B67), UniProt Q5J463), sequence (Q5J463 whole entry): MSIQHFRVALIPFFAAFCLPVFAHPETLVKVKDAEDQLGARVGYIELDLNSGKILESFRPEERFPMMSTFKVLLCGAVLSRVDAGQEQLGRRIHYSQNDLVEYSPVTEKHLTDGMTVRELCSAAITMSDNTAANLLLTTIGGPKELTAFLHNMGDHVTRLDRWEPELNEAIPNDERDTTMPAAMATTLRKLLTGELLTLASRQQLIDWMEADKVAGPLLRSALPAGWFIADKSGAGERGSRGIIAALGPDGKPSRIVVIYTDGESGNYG
Sphingosine 1-phosphate receptor 2, sequence (O95136 whole entry): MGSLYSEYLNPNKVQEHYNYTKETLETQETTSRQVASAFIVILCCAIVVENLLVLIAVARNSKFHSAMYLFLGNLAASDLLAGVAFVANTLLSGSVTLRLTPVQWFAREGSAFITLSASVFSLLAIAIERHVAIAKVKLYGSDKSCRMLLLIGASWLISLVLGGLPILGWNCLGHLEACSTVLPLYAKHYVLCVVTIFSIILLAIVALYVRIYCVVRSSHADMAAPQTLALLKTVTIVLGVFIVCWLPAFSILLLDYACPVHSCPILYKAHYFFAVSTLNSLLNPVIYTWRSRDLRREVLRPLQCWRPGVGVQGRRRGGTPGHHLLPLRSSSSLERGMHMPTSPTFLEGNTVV
Keap1/Nrf2, sequence (Q16236 whole entry): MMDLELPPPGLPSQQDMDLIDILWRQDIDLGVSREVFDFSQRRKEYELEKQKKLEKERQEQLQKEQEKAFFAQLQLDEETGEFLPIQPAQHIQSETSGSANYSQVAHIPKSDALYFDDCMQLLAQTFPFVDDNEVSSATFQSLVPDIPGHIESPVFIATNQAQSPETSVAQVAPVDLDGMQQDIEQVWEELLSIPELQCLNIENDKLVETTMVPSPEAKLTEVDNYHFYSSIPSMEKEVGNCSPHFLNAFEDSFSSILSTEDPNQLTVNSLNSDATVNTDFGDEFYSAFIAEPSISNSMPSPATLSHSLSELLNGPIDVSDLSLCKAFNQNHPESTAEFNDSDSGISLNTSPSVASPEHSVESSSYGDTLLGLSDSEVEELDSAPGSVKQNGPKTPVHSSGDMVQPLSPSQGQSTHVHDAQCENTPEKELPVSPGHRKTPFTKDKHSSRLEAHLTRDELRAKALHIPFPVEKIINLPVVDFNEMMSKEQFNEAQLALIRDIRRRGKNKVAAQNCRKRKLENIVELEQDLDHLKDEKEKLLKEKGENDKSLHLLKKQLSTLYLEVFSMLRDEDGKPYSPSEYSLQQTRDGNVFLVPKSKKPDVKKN
Keap1/Nrf2, sequence (Q14145 whole entry): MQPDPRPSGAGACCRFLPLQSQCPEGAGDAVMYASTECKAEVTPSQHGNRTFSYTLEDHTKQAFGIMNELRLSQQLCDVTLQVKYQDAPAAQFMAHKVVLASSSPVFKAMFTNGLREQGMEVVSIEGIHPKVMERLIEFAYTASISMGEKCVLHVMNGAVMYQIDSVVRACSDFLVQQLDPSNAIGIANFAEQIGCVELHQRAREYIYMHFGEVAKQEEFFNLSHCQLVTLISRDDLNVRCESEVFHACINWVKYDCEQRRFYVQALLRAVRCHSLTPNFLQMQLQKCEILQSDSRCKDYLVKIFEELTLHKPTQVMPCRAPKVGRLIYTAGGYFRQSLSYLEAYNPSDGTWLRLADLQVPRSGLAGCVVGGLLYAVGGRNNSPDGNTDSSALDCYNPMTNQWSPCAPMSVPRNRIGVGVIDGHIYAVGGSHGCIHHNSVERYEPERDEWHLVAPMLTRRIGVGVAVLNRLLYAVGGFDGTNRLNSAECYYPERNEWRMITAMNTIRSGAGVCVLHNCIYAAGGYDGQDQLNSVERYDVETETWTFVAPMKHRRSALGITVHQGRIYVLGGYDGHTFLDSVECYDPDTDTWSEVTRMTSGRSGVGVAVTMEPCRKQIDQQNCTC

On to `Cc1ccc(C)n1-c1nn(S(=O)(=O)c2cccc3cccnc23)c2cccc(F)c12`, for which the IC50 on Orexin receptor type 2 [1] was 29.3 µM (inactive); in [2] it was > 49.8 µM (inactive); in test [3], 45 µM (inactive); at Orexin receptor type 2 [4], > 50 µM (inactive); in the test on CHO-K1, > 66.2 µM (inactive); in test [5], 1.93 µM (active).
On to `CC1CCCCC1N(C(=O)c1cc(C2CC2)on1)C1CCCC1` (stereo not given), for which the EC50 in [6] and in test [7] was > 50 µM (inactive) each time.
Take `O=C1c2cccc3c(O)ccc(c23)C(=O)N1c1ccc(Cl)cc1`: the EC50 was > 54.7 µM (inactive) at Insulin-degrading enzyme [8]; > 54.7 µM (inactive) at Insulin-degrading enzyme [10]; 0.289 µM (inconclusive) in test [12]; > 54.7 µM (inactive) with HEK293 [13]; 7.11 µM (inconclusive) in [14]. The IC50 is > 89.2 µM (inactive) in the test on HEK293 [9], 19.8 µM (inactive) on Beta-lactamase [11] and 7.95 µM (active) at Beta-lactamase [15]. Also, the half-maximal activity concentration (AC50) was 2.53 µM (active) at Keap1/Nrf2 and 1.93 µM (active) at ORF 73.
In the case of `Cc1ccc(NC(=O)COC(=O)CCc2c[nH]c3ccccc23)cc1[N+](=O)[O-]`, the CC50 in test [16] was > 100 µM (active). The 50% inhibitory concentration (IC50) in the test “cells” was 1.84 µM (active).

Values taken from ChEMBL document CHEMBL1201862, “PubChem BioAssay data set” (2004).
